Reference: patent US11214803B2, “Modulators of YAP1 expression” (Ionis Pharmaceuticals, Inc., priority 2019, dated 2022)
Strand notation (5' to 3'): a small letter for the sugar, then the base; units joined by * are phosphorothioate-linked, units joined directly phosphodiester-linked; [ ] holds rarer units or linkages, { } end groups; capitals alone tell only the bases. k = constrained ethyl (cEt); [5mC] = 5-methylcytosine; d = 2'-deoxy (DNA)

Key:
Format in all cases: cell-based
Yap1 mRNA [1] = experiment: Antisense inhibition of human Yap1 in SNU-449 cells by modified oligonucleotides, single dose (Example 5, RTS36584); settings: Yap1 mRNA, percent of untreated control; modified oligonucleotides targeting SEQ ID NO: 1 and 2; Table 47
Method in brief: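 SNU-449 cells (10,000/well) took up 2,000 nM oligonucleotide by free uptake for about 48 h. Yap1 mRNA was measured by qRT-PCR with primer probe set RTS36584 and normalised to RIBOGREEN total RNA. Values are % of untreated control; asterisked oligos target the amplicon region.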

Yap1 mRNA [2] = experiment: Antisense inhibition of human Yap1 in A-431 cells by cEt gapmers, single dose (Example 4, RTS4814)
Method in brief: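 A-431 cells took up 3-10-3 cEt gapmers (16-mer, full phosphorothioate, 5-methylcytosines) by free uptake at 2,000 nM for about 48 h. Yap1 mRNA was quantified by qRT-PCR, normalized to total RNA (RIBOGREEN), and reported as % of untreated control.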

Yap1 mRNA [3] = experiment: Dose-dependent inhibition of human Yap1 in A-431 cells (Example 8, 10,000 cells per well, RTS4814); settings: A-431 cells; for IC50: Yap1 mRNA
Method in brief: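 A-431 cells (10,000/well) dosed with modified oligonucleotides by free uptake; Yap1 mRNA measured ~48 h later with primer-probe set RTS4814, normalized to total RNA (RIBOGREEN). Values are % of untreated control; IC50 from linear regression on log/linear plot.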

[4] = Yap1 mRNA remaining as percent of untreated control, 3-10-3 cEt gapmers, A-431 cells, Table 37
[5] = Yap1 mRNA remaining as percent of untreated control, 3-10-3 cEt gapmers, A-431 cells, Table 36

| Substance | YAP1 (% UT) (Yap1 mRNA [1]) | YAP1 (% UTC) (Yap1 mRNA [2]; Table 17, A-431 cells, 5,000 cells per well, free uptake, 2,000 nM, approximately 48 hours, RTS4814, normalized to RIBOGREEN, Yap1 mRNA relative to untreated control cells) | YAP1 (% UTC) (Yap1 mRNA [2]; Table 14, A-431 cells, 5,000 cells per well, free uptake, 2,000 nM, approximately 48 hours, RTS4814, normalized to RIBOGREEN, Yap1 mRNA relative to untreated control, * = targets amplicon region of primer probe set) | % UTC (Yap1 mRNA) (Yap1 mRNA [3]; 31.3 nM) [% UTC] | % UTC (Yap1 mRNA) (Yap1 mRNA [3]; 125.0 nM) [% UTC] | % UTC (Yap1 mRNA) (Yap1 mRNA [3]; 500.0 nM) [% UTC] | % UTC (Yap1 mRNA) (Yap1 mRNA [3]; 2000.00 nM) [% UTC] | IC50 (Yap1 mRNA [3]) [nM] | YAP1 (% UTC) (Yap1 mRNA [2]; [4]) | YAP1 (% UTC) (Yap1 mRNA [2]; Table 15, A-431 cells, 5,000 cells per well, free uptake, 2,000 nM, approximately 48 hours, RTS4814, normalized to RIBOGREEN, Yap1 mRNA relative to untreated control, * = targets amplicon region of primer probe set) | YAP1 (% UTC) (Yap1 mRNA [2]; [5]) |
| --- | --- | --- | --- | --- | --- | --- | --- | --- | --- | --- | --- |
| 1074755 (CACTTTTACATTAGGA; antisense; chemistry not fully specified) [Compound 1074755] | 23 % UT | 3 |  |  |  |  |  |  |  |  |  |
| 1074464 (kT*kT*kA*dG*dA*dG*dT*dA*dT*dG*dT*dG*dG*k[5mC]*kA*kA) [Compound 1074464] | 5 % UT |  | 2 |  |  |  |  |  |  |  |  |
| 1076471 (k[5mC]*kA*kT*dT*dA*dG*dA*d[5mC]*dT*dA*dG*dG*d[5mC]*kT*kT*kT; antisense) [compound 1076471] |  |  |  | 64 | 29 | 9 | 5 | 50 | 5 |  |  |
| 1076481 (antisense k[5mC]*kT*kA*dA*dG*dT*dA*dA*dG*dG*dT*dT*dT*k[5mC]*k[5mC]*k[5mC]) [Compound 1076481] | ^mCksTksAksAdsGdsTdsAdsAdsGdsGds13 % UT |  |  |  |  |  |  |  |  | 1 |  |
| 1075990 (k[5mC]*kG*kT*dT*dA*dT*dT*dA*dT*dG*d[5mC]*dA*dG*k[5mC]*kA*kA; antisense) [compound 1075990] |  |  |  | 28 | 6 | 3 | 3 | < 20 |  |  | 1 |
| 1074487 (kA*kG*kA*dT*dT*d[5mC]*dA*d[5mC]*dT*dA*dA*dT*dA*kT*kG*kG; antisense) [compound 1074487] |  |  |  | 73 | 28 | 11 | 6 | 100 | 7 |  |  |
| 1075222 (kG*kT*kA*dT*dT*dT*dG*dG*dA*d[5mC]*dA*dA*d[5mC]*kT*k[5mC]*kT; antisense) [compound 1075222] |  |  |  | 75 | 30 | 8 | 5 | 100 |  |  | 3 |
| 1076119 (kG*kT*kT*dA*dA*dA*dT*dA*dT*dG*dA*dA*dT*kT*kG*kG; antisense) [compound 1076119] |  |  |  | 82 | 35 | 12 | 6 | 100 | 7 |  |  |
| 1074775 (kG*kG*kT*dT*dT*dA*dT*dT*dG*dT*dA*dA*dA*kA*kG*k[5mC]; antisense) [compound 1074775] |  |  |  | 26 | 5 | 2 | 2 | < 20 | 3 |  |  |
